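Cultured in 96-well plates, cells were exposed to test compound for 48 hours across five concentrations. GI50 marks 50% less growth. At the TGI there is no net growth.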
Legend:
Assay in all cases: NCI tumour cell line growth inhibition, 48 h
MDA-MB-435 = test system: MDA-MB-435
NCI/ADR-RES ovarian = test system: NCI/ADR-RES ovarian
DU-145 prostate = test system: DU-145 prostate
MCF7 breast = test system: MCF7 breast
BT-549 breast = test system: BT-549 breast
T-47D breast = test system: T-47D breast

SMILES	GI50 (MDA-MB-435) [nM]	TGI (MDA-MB-435) [µM]	GI50 (NCI/ADR-RES ovarian) [nM]	TGI (NCI/ADR-RES ovarian) [µM]	GI50 (DU-145 prostate) [µM]	TGI (DU-145 prostate) [µM]	GI50 (MCF7 breast) [nM]	TGI (MCF7 breast) [µM]	GI50 (BT-549 breast) [nM]	TGI (BT-549 breast) [µM]	GI50 (T-47D breast) [µM]	TGI (T-47D breast) [µM]
N#CC(C#N)=Cc1c(-c2ccccc2)[nH]c2ccccc12	248	0.736	820	> 45.2	3.2	17.9	1070	> 47.2	8450	> 100	4.23	> 95.1
COc1cc2c(c(OC)c1OC)C(=O)CC(c1cccc(NC(=O)c3ccc(Br)cc3)c1)O2 (stereo not drawn)	1460	4.46	2410	9.45	2.85	> 100	1900	49.3	2090	6.39	1.41	5.98
C=C1C(=O)O[C@H]2[C@H]1CC/C(Cn1cc(CNCCc3c[nH]c4ccc(Cl)cc34)nn1)=C\CC[C@@]1(C)O[C@@H]21	6090	21	> 100000	> 100	5.95	18.5	2590	11.5	3880	17	3.24	13.8
COc1cc(/C=N/Nc2ncnc3c2cnn3C(C)C)ccc1O	7660	> 25	6950	> 25	8.03	> 25	4680	16.1	> 20400	> 25	5.31	> 21.5
Oc1c(C(Nc2cccc3ccccc23)c2ccccc2)ccc2cccnc12 (stereo not drawn)	5000	> 100	2170	8.29	7.22	> 100	3200	> 100	2070	14.5	4.75	58.3
NC(=O)c1cc(-c2ccncc2)cc(-c2ccccc2)c1N	> 25000	> 25	> 21000	> 25	> 22.9	> 25	> 25000	> 25	22500	> 25	9.57	> 25
COc1ccc(-c2nn(-c3ccc(NC(=O)c4ccc(Cl)c(C(F)(F)F)c4)cc3)cc2-c2ccncc2)cc1Cl	1160	> 100	2070	> 100	4.6	> 100	1590	> 100	1160	96.9	3.78	> 100
NC1=NC(c2ccc(Cl)cc2)N(c2ccc(S(=O)(=O)Nc3ncccn3)cc2)C(N)=N1 (stereo not drawn)	–	> 100	–	> 100	–	> 100	–	> 100	–	> 100	–	> 100
CCN(CC)C(=O)CC1=C(C)/C(=C/c2[nH]c(-c3ccc[nH]3)cc2OC)N=C1C	412	14.6	563	14.8	0.546	> 100	458	17.9	787	47.1	0.272	13.1
O=C1c2ccccc2NC(c2cc(Cl)cc(Cl)c2O)N1CCc1ccccn1 (stereo not drawn)	–	> 100	–	> 100	–	> 100	–	> 100	–	> 100	–	69.8

Reference: PubChem BioAssay (NCI)
